In ChEMBL document CHEMBL6177967, “Semisynthesis and biological evaluation of 17-hydroxybrevianamide N derivatives as anti-inflammatory agents by mediating NF-κB and MAPK signaling pathways” (Eur J Med Chem, 2025) one finds Activity, inhibition and IC50 data, which are given here for 41 compounds.

One may read the inhibition as the relative decrease from the control value, in per cent. Usually IC50 stands for the concentration needed to halve the response being measured.

For series [1], the system named is RAW264.7. Nature of the series: Cytotoxicity against mouse RAW264.7 cells assessed as inhibition of cell growth at 10 uM incubated for 24 hrs by MTT assay. In kind it is toxicity, cell-based. The note with it: raw264.7, 24 h. For orientation: Tetrazolium dyes change colour on reduction, which living cells bring about.
In series [2] the test system is RAW264.7. Nature of the series: Anti-inflammatory activity in LPS-induced mouse RAW264.7 cells assessed as inhibition of NO levels at 2 uM incubated for 24 hrs. Type of series: functional, cell-based.
In series [3] the test system is RAW264.7. Nature of the series: Anti-inflammatory activity in LPS-induced mouse RAW264.7 cells assessed as inhibition of TNF-alpha level at 2 uM incubated for 24 hrs by ELISA relative to control. In kind it is functional. (ELISA stands for enzyme-linked immunosorbent assay.)
Series [4] relates to RAW264.7. Nature of the series: Anti-inflammatory activity in LPS-induced mouse RAW264.7 cells assessed as inhibition of IL-6 level at 2 uM incubated for 24 hrs by ELISA relative to control. In kind it is functional.
Series [5] has as its system RAW264.7. Nature of the series: Anti-inflammatory activity in LPS-induced mouse RAW264.7 cells assessed as inhibition of IL-1beta level at 2 uM incubated for 24 hrs by ELISA relative to control. Type of series: functional.
For series [6], the system named is RAW264.7. Nature of the series: Anti-inflammatory activity in LPS-induced mouse RAW264.7 cells assessed as inhibition of NO levels incubated for 24 hrs. In kind it is functional, cell-based. The note with it: RAW264.7, 24 h.
Series [7] concerns RAW264.7. Nature of the series: Cytotoxicity against mouse RAW264.7 cells assessed as inhibition of cell growth at 2 uM incubated for 24 hrs by MTT assay. Conditions: raw264.7, 24 h. In kind it is toxicity, cell-based.
For series [8], the system named is RAW264.7. Nature of the series: Cytotoxicity against mouse RAW264.7 cells assessed as inhibition of cell growth at 50 uM incubated for 24 hrs by MTT assay. In kind it is toxicity, cell-based. The note with it: raw264.7, 24 h.
Series [9] has as its system RAW264.7. Nature of the series: Anti-inflammatory activity in LPS-induced mouse RAW264.7 cells assessed as inhibition of TNF-alpha level at 20 uM incubated for 24 hrs by ELISA relative to control. Type of series: functional.
Series [10] concerns RAW264.7. Nature of the series: Anti-inflammatory activity in LPS-induced mouse RAW264.7 cells assessed as inhibition of IL-1beta level at 20 uM incubated for 24 hrs by ELISA relative to control. Type of series: functional.
Series [11] has as its system RAW264.7. Nature of the series: Anti-inflammatory activity in LPS-induced mouse RAW264.7 cells assessed as inhibition of IL-6 level at 20 uM incubated for 24 hrs by ELISA relative to control. Type of series: functional.

Calls of active or inactive are those of the source. No cut-off for these calls is given here.

Consider `CN1C(=O)c2nc3ccccc3c(=O)n2C(Cc2ccccc2O)C1=O` (racemic), for which the Activity entry in series [1] was “Non-toxic”.
Regarding `CN1C(=O)c2nc3ccccc3c(=O)n2C(Cc2ccccc2OCc2ccccc2Cl)C1=O` (racemic), the Activity result in series [1] is given as “Non-toxic”; in [2] it was “Active; Strong Ability Of No Inhibition Observed”.
In the case of `O=C1c2nc3ccccc3c(=O)n2[C@H](Cc2ccccc2O)C(=O)N1Cc1cccc(Br)c1`, the inhibition result in series [3] is “inactive”. Also, the inhibition at 2 µM was determined as 19.2% in series [4] and 45.2% in series [5]. Moreover, the IC50 in [6] was determined as 1370 nM. Besides, the Activity entry in series [7] is recorded as “Non-toxic”.
Consider `COc1ccccc1CC1C(=O)N(Cc2cccc(C)c2)C(=O)c2nc3ccccc3c(=O)n21` (racemic), for which the Activity entry in [1] was “Non-toxic”.
In the case of `Cc1ccc(CN2C(=O)c3nc4ccccc4c(=O)n3C(Cc3ccccc3O)C2=O)cc1` (racemic), the Activity result in [1] and in series [8] was “Non-toxic” in each case.
`CN1C(=O)c2nc3ccccc3c(=O)n2C(Cc2ccccc2OCC#N)C1=O` (racemic): the Activity entry in [1] is “Non-toxic”; in series [8], “Non-toxic”; in series [2], “Active; Strong Ability Of No Inhibition Observed”.
In the case of `O=C1NC(=O)C(Cc2ccccc2O)n2c1nc1ccccc1c2=O` (racemic), the inhibition entry in series [3] is “inactive”. In addition, in series [1], the Activity entry is “Non-toxic”. Moreover, the inhibition at 2 µM in [4] stood at 28.8%; in [5] it was 33.3%.
As for `COCC(=O)Oc1ccccc1CC1C(=O)N(C)C(=O)c2nc3ccccc3c(=O)n21` (racemic), in [1], the Activity entry is recorded as “Non-toxic”.
For the compound `O=C1c2nc3ccccc3c(=O)n2C(Cc2ccccc2O)C(=O)N1Cc1cccc(F)c1` (racemic), the Activity result in [1] is recorded as “Non-toxic”; in [2], “Active; Strong Ability Of No Inhibition Observed”.
Turning to `COCOc1ccccc1CC1C(=O)N(Cc2cccc(C)c2)C(=O)c2nc3ccccc3c(=O)n21` (racemic), in series [1], the Activity result is “Non-toxic”.
As for `O=C1c2nc3ccccc3c(=O)n2[C@@H](Cc2ccccc2O)C(=O)N1Cc1cccc(F)c1`, in series [3], the inhibition entry is “inactive”. For the same compound, the inhibition at 2 µM in series [4] worked out at 21.3%; in series [5], 60.7%. In addition, the IC50 in series [6] came to 3070 nM. The Activity entry in series [7] was “Non-toxic”.
Regarding `O=C1c2nc3ccccc3c(=O)n2C(Cc2ccccc2O)C(=O)N1Cc1cccc(C(F)(F)F)c1` (racemic), the Activity entry in series [1] is given as “Non-toxic”.
For `O=C1c2nc3ccccc3c(=O)n2C(Cc2ccccc2O)C(=O)N1Cc1ccccc1Cl` (racemic), the Activity result in series [1] was “Non-toxic”; in series [8] it was “Non-toxic”; in series [2], “Active; Strong Ability Of No Inhibition Observed”.
In the case of `COc1ccc(C2(O)c3nc4ccccc4c(=O)n3C(Cc3ccccc3O)C(=O)N2C)cc1` (racemic), the Activity entry in [1] is “Non-toxic”.
On to `CN1C(=O)C(Cc2ccccc2O)n2c(nc3ccccc3c2=O)C1(O)c1ccccc1` (racemic), for which the Activity result in series [1] and in series [8] was “Non-toxic” in each case.
For `COCOc1ccccc1CC1C(=O)N(Cc2cccc(C(F)(F)F)c2)C(=O)c2nc3ccccc3c(=O)n21` (racemic), the results for the Activity entry in series [1] and in series [8] were “Non-toxic” and “Toxic”, respectively.
Consider `Cc1ccc(COc2ccccc2CC2C(=O)N(C)C(=O)c3nc4ccccc4c(=O)n32)cc1` (racemic), for which the Activity entry in series [1] is reported as “Non-toxic”.
In the case of `CN1C(=O)c2nc3ccccc3c(=O)n2[C@@H](Cc2ccccc2OCC#N)C1=O`, the inhibition entry in [3] was “inactive”. In addition, the values for the inhibition at 2 µM in series [4] and in series [5] were 31.6% and 48.8%, respectively. In addition, the IC50 in [6] turned out to be 1610 nM. The Activity entry in [7] is on record as “Non-toxic”.
As to `CNC(=N)NCCC[C@H](N)C(=O)O` [TILARGININE], the values for the inhibition at 20 µM in [9], in [10] and in series [11] were 19.4%, 61.9% and 27.6%, respectively. The IC50 in series [6] was 20000 nM.
With `O=C1c2nc3ccccc3c(=O)n2C(Cc2ccccc2O)C(=O)N1Cc1cccc(Br)c1` (racemic), the figures for the Activity entry in series [1] and in series [2] were “Non-toxic” and “Active; Strong Ability Of No Inhibition Observed”, respectively.
In the case of `CCOC(=O)COc1ccccc1CC1C(=O)N(C)C(=O)c2nc3ccccc3c(=O)n21` (racemic), the Activity result in [1] is reported as “Non-toxic”.
Turning to `O=C1c2nc3ccccc3c(=O)n2[C@@H](Cc2ccccc2O)C(=O)N1Cc1cccc(Br)c1`, the inhibition entry in series [3], in series [4] and in series [5] was “inactive” in each case. Besides, in series [6], the IC50 was over 8000 nM. Further, in series [7], the Activity result is given as “Non-toxic”.
`COCOc1ccccc1CC1C(=O)NC(=O)c2nc3ccccc3c(=O)n21` (racemic): the Activity result in series [1] is on record as “Non-toxic”.
Take `Cc1cccc(CN2C(=O)c3nc4ccccc4c(=O)n3C(Cc3ccccc3O)C2=O)c1` (racemic): in series [1], the Activity result is recorded as “Non-toxic”. The result in series [2] was Active.
Take `O=C1c2nc3ccccc3c(=O)n2[C@H](Cc2ccccc2O)C(=O)N1Cc1ccccc1Cl`: the inhibition entry in series [3] is “inactive”. In addition, the figures for the inhibition at 2 µM in series [4] and in [5] were 28.8% and 35.7%, respectively. In addition, the IC50 in [6] stood at 1190 nM. Further, the Activity entry in [7] is reported as “Non-toxic”.
For `C=CCOc1ccccc1C[C@@H]1C(=O)N(C)C(=O)c2nc3ccccc3c(=O)n21`, in that order: “inactive”, 36.5%, 42.9%, 1680 nM and “Non-toxic”.
Consider `CN1C(=O)c2nc3ccccc3c(=O)n2C(Cc2ccccc2OC(=O)COCc2ccccc2)C1=O` (racemic), for which the Activity result in series [1] is recorded as “Non-toxic”.
On to `CN1C(=O)c2nc3ccccc3c(=O)n2C(Cc2ccccc2OC(=O)c2cccs2)C1=O` (racemic), for which, in series [1], the Activity result is recorded as “Non-toxic”.
Take `C=CCOc1ccccc1CC1C(=O)N(C)C(=O)c2nc3ccccc3c(=O)n21` (racemic): the Activity result in [1] was “Non-toxic”; in [8] it was “Toxic”; in [2], “Active; Strong Ability Of No Inhibition Observed”.
`CN1C(=O)c2nc3ccccc3c(=O)n2C(Cc2ccccc2OCc2cccc(C(F)(F)F)c2)C1=O` (racemic): the Activity result in [1] was “Non-toxic”.
`CC(=O)Oc1ccccc1CC1C(=O)N(C)C(=O)c2nc3ccccc3c(=O)n21` (racemic): the Activity entry in series [1] is reported as “Non-toxic”.
With `O=C1c2nc3ccccc3c(=O)n2C(Cc2ccccc2O)C(=O)N1Cc1ccc(Cl)cc1` (racemic), the Activity entry in [1] and in series [8] was “Non-toxic” in each case.
Turning to `CN1C(=O)c2nc3ccccc3c(=O)n2[C@@H](Cc2ccccc2OCc2ccccc2Cl)C1=O`, the inhibition entry in series [3] is “inactive”. In addition, the values for the inhibition at 2 µM in [4] and in series [5] were 21.4% and 82.1%, respectively. For the same compound, the IC50 in [6] was 1530 nM. Further, the Activity entry in series [7] was “Non-toxic”.
With `CN1C(=O)c2nc3ccccc3c(=O)n2C(Cc2ccccc2OC(=O)c2ccco2)C1=O` (racemic), the Activity result in series [1] was “Non-toxic”.
Same read-out and setting: to `COc1ccccc1CC1C(=O)N(C)C(=O)c2nc3ccccc3c(=O)n21` (racemic) belongs “Non-toxic”.
As to `O=C1c2nc3ccccc3c(=O)n2[C@@H](Cc2ccccc2O)C(=O)N1Cc1ccccc1Cl`, the inhibition entry in [3] and in series [5] was “inactive” throughout. Besides, the inhibition at 2 µM in series [4] amounted to 19.3%. Besides, the IC50 in series [6] was 1780 nM. Besides, the Activity entry in series [7] is recorded as “Non-toxic”.
As for `O=C1c2nc3ccccc3c(=O)n2[C@H](Cc2ccccc2O)C(=O)N1Cc1cccc(F)c1`, the inhibition result in series [3] was “inactive”. Also, the inhibition at 2 µM in series [4] stood at 22.9%; in [5], 44%. The IC50 in [6] stood at 2250 nM. In addition, the Activity entry in [7] is “Non-toxic”.
For `CN1C(=O)c2nc3ccccc3c(=O)n2[C@H](Cc2ccccc2OCc2ccccc2Cl)C1=O`, the inhibition entry in series [3], in series [4] and in [5] was “inactive” throughout. Besides, the IC50 in series [6] is over 8000 nM. Moreover, in series [7], the Activity result is reported as “Non-toxic”.
For `COc1ccccc1CC1C(=O)N(Cc2cccc(F)c2)C(=O)c2nc3ccccc3c(=O)n21` (racemic), the Activity result in series [1] is “Non-toxic”.
As for `CN1C(=O)c2nc3ccccc3c(=O)n2C(Cc2ccccc2OCc2ccc(Cl)cc2)C1=O` (racemic), the Activity entry in series [1] is “Non-toxic”. For the same compound, the result in [2] was Active.
For `CN1C(=O)c2nc3ccccc3c(=O)n2[C@H](Cc2ccccc2OCC#N)C1=O`, the inhibition result in [3] is “inactive”. Moreover, the inhibition at 2 µM came out at 31.9% in series [4] and 63.1% in series [5]. Also, the IC50 in [6] is over 8000 nM. For the same compound, in [7], the Activity result is on record as “Non-toxic”.
